From patent publication US9247759B2, “Identification of human T2R receptors that respond to bitter compounds that elicit the bitter taste in compositions, and the use thereof in assays to identify compounds that inhibit (block) bitter taste in compositions and use thereof” (SENOMYX, INC., priority 2007, dated 2016)
Read-outs that look alike come from different tables or passages of the source.

Legend:
[1] = system: hT2R63; assay: hT2R panel inhibition, transient HEK293 G16g44, agonist Caffeine 1 mM or Andrographolide 100 μM; format: cell-based, human; conditions: compound at 25 μM; for screening result against bitter receptor 63: receptor activated to EC80 with the corresponding agonist
Procedure, shortened: (§1)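 Each human T2R transiently transfected into HEK293 cells stably expressing G16g44; functional receptor assays run with the listed bitter agonist at EC80 concentration. Inhibition recorded as reduction of agonist-induced receptor activity in presence of Compound C.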

[2] = target: T1, hT2R14 (Homo sapiens (Human), UniProt Q9NYV8); assay: hT2R14 antagonist high-throughput FLIPR assay, stable cell line with G16g44, agonist aristolochic acid; format: cell-based; conditions: read-out: IC50 on hT2R14 bitter receptor
Procedure, shortened: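 HEK293 cells stably expressing hT2R14 with chimeric G16g44 were stimulated with aristolochic acid (3 μM), giving 70-80% of maximal receptor activity. Test compounds were added together with the agonist, and antagonism was read as fluorescent calcium signal on FLIPR.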

[3] = target: hT2R61 (Homo sapiens (Human), UniProt P59537); assay: hT2R panel inhibition, transient HEK293 G16g44, agonist Aristolochic Acid 25 nM; format: cell-based; conditions: HEK293, compound at 25 μM
Procedure, shortened: as §1

[4] = target: hT2R16 (Homo sapiens (Human), UniProt Q9NYV7); assay: hT2R panel inhibition, transient HEK293 G16g44, agonist Salicin 1 mM; format: cell-based; conditions: HEK293, compound at 25 μM
Procedure, shortened: as §1

[5] = target: hT2R3 (Homo sapiens (Human), UniProt Q9NYW6); assay: hT2R panel inhibition, transient HEK293 G16g44, agonist Chloroquine pH6.5 50 μM; format: cell-based; conditions: HEK293, compound at 25 μM
Procedure, shortened: as §1

[6] = system: hT2R44; assay: hT2R panel inhibition, transient HEK293 G16g44, agonist Denatonium 0.5 μM; format: cell-based, human; conditions: compound at 25 μM; for screening result against bitter receptor 44: receptor activated to EC80 with the corresponding agonist
Procedure, shortened: as §1

[7] = target: hT2R75 (Homo sapiens (Human), UniProt P59540); assay: hT2R panel inhibition, transient HEK293 G16g44, agonist Strychnine 1 μM; format: cell-based
Experimental: (§2) Specifically, in order to evaluate the inhibitory selectivity of the Compound C compound, this compound was tested against 22 human T2Rs which were deorphaned by Senomyx. These receptors and the bitter ligands that activate these human T2Rs are reported in earlier patent applications which are incorporated by reference herein. These 22 human T2Rs are hT2R1, 3, 4, 5, 7, 8, 9, 10, 13, 14, 16, 44, 51, 54, 55, 61, 63, 64, 65, 67, 71 and 75. The amino acid and nucleic acid sequences of all of these T2Rs may be found in these earlier patent applications. These human T2Rs were each individually transiently transfected into HEK293 cells that stably express the promiscuous G protein G16g44 and functional assays were effected using these receptors as disclosed in these same patent applications. […] The ligands were used at EC80 concentration levels. The list of bitter ligands utilized and the tested ligand concentrations are contained in Table 5 of this example.
(§3) Relating to the foregoing, FIG. 5 contains experimental results wherein Compound C was tested with different agonist compounds. The inhibition activity is represented by the reduction of receptor activity in the presence of Compound C. […] These 13 hT2Rs are hT2R3, 7, 10, 14, 16, 44, 51, 55, 61, 63, 64, 65, and 71.

[8] = target: T1, hT2R14; assay: hT2R panel inhibition, transient HEK293 G16g44, agonist Aristolochic Acid 2 μM; format: cell-based; conditions: HEK293, compound at 25 μM
Procedure, shortened: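 Each hT2R was transiently transfected into HEK293 cells stably expressing G16g44 and assayed functionally for inhibition of agonist response. Agonists were applied at EC80: andrographolide at 0.5 mM for hT2R8 and aristolochic acid at 2 μM for hT2R14.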

[9] = target: hT2R71 (Homo sapiens (Human), UniProt P59536); assay: hT2R panel inhibition, transient HEK293 G16g44, agonist Picric Acid 10 μM; format: cell-based; conditions: HEK293, compound at 25 μM
Procedure, shortened: as §1

[10] = target: hT2R64 (Homo sapiens (Human), UniProt P59538); assay: hT2R panel inhibition, transient HEK293 G16g44, agonist Aristolochic Acid 1 μM; format: cell-based; conditions: HEK293, compound at 25 μM
Procedure, shortened: as §1

[11] = system: hT2R55; assay: hT2R panel inhibition, transient HEK293 G16g44, agonist Cinchonine 150 μM; format: cell-based, human; conditions: compound at 25 μM; for screening result against bitter receptor 55: receptor activated to EC80 with the corresponding agonist
Procedure, shortened: as §1

[12] = target: hT2R7 (Homo sapiens (Human), UniProt Q9NYW3); assay: hT2R panel inhibition, transient HEK293 G16g44, agonist Chloroquine pH6.5 10 mM; format: cell-based; conditions: HEK293, compound at 25 μM; receptor activated to EC80 with the corresponding agonist; read-out: screening result against bitter receptor 7
Procedure, shortened: as §1

[13] = target: hT2R5 (Homo sapiens (Human), UniProt Q9NYW4); assay: hT2R panel inhibition, transient HEK293 G16g44, agonist Picoline 10 mM; format: cell-based; conditions: HEK293, compound at 25 μM; receptor activated to EC80 with the corresponding agonist; read-out: screening result against bitter receptor 5
Procedure, shortened: as §1

[14] = target: hT2R10 (Homo sapiens (Human), UniProt Q9NYW0); assay: hT2R panel inhibition, transient HEK293 G16g44, agonist Strychnine 50 μM; format: cell-based
[15] = target: hT2R51 (Homo sapiens (Human), UniProt P59533); assay: hT2R panel inhibition, transient HEK293 G16g44, agonist Prop 2.5 μM; format: cell-based; conditions: HEK293, compound at 25 μM; receptor activated to EC80 with the corresponding agonist; read-out: screening result against bitter receptor 51
Experimental: as §2, §3

[16] = system: hT2R67; assay: hT2R panel inhibition, transient HEK293 G16g44, agonist Andrographolide 5 μM; format: cell-based, human; conditions: compound at 25 μM; receptor activated to EC80 with the corresponding agonist
Experimental: as §2, §3

[17] = system: hT2R65; assay: hT2R panel inhibition, transient HEK293 G16g44, agonist Oleuropein 1 mM; format: cell-based, human; conditions: compound at 25 μM; for screening result against bitter receptor 65: receptor activated to EC80 with the corresponding agonist
Experimental: as §2, §3

[18] = system: hT2R54; assay: hT2R panel inhibition, transient HEK293 G16g44, agonist Ranitidine 5 mM; format: cell-based, human; conditions: compound at 25 μM; receptor activated to EC80 with the corresponding agonist
Experimental: as §2, §3

[19] = receptor activated to EC80 with the corresponding agonist, read-out: screening result against bitter receptor 61
[20] = receptor activated to EC80 with the corresponding agonist, read-out: screening result against bitter receptor 16
[21] = receptor activated to EC80 with the corresponding agonist, read-out: screening result against bitter receptor 3
[22] = HEK293, read-out: screening result against bitter receptor 75, compound at 25 μM, receptor activated to EC80 with the corresponding agonist
[23] = receptor activated to EC80 with the corresponding agonist, read-out: screening result against bitter receptor 14
[24] = receptor activated to EC80 with the corresponding agonist, read-out: screening result against bitter receptor 71
[25] = receptor activated to EC80 with the corresponding agonist, read-out: screening result against bitter receptor 64
[26] = HEK293, read-out: screening result against bitter receptor 10, compound at 25 μM, receptor activated to EC80 with the corresponding agonist
[27] = receptor activated to EC80 with agonist

T1 sequence (Q9NYV8 whole entry): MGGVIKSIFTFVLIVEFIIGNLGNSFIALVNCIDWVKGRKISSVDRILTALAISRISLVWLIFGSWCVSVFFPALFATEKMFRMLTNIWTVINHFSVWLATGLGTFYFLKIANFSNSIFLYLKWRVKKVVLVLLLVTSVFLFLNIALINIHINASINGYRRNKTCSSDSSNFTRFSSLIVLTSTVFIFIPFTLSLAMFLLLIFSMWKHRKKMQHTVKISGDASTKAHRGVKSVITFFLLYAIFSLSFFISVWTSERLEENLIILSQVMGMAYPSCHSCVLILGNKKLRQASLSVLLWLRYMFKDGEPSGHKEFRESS
Sequence of hT2R75 (P59540 whole entry): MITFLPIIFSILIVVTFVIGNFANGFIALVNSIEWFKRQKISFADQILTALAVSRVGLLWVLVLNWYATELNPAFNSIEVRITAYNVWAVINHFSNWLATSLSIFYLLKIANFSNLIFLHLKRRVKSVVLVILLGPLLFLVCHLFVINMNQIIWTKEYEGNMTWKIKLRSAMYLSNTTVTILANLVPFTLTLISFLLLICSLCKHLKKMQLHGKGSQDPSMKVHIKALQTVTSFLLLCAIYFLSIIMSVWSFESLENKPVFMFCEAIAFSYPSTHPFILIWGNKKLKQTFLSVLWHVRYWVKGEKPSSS
Sequence of hT2R3 (Q9NYW6 whole entry): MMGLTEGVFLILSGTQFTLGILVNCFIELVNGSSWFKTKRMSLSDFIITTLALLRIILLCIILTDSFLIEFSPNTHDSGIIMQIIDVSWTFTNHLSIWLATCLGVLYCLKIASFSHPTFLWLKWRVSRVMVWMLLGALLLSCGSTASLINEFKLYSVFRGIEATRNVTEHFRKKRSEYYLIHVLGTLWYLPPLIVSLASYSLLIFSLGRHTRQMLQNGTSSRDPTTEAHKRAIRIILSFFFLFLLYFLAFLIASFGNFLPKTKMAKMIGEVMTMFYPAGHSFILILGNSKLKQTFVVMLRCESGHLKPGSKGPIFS
Sequence of hT2R16 (Q9NYV7 whole entry): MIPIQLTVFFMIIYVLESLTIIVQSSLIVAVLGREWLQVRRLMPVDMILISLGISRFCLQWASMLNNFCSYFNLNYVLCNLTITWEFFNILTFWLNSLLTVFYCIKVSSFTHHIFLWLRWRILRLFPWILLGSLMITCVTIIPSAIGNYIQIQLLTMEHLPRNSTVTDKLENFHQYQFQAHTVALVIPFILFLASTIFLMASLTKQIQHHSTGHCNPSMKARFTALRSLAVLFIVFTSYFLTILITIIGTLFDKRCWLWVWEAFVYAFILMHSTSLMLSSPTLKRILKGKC
Sequence of hT2R64 (P59538 whole entry): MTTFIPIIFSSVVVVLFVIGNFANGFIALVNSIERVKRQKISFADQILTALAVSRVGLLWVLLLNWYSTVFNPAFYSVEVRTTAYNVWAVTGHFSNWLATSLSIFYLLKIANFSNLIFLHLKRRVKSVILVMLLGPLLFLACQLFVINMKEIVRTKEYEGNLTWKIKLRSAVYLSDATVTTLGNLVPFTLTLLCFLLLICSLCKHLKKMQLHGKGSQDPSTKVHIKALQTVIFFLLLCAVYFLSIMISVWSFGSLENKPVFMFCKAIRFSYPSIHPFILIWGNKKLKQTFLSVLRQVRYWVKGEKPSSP
Sequence of hT2R51 (P59533 whole entry): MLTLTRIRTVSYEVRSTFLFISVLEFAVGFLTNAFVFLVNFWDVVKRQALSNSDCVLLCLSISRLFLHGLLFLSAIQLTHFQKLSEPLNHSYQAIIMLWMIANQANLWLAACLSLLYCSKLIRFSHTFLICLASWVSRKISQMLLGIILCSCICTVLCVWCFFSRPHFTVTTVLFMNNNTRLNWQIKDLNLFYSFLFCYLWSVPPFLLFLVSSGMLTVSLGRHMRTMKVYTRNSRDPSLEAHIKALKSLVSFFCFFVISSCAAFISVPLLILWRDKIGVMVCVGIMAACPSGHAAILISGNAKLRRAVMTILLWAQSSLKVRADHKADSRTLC
Sequence of hT2R71 (P59536 whole entry): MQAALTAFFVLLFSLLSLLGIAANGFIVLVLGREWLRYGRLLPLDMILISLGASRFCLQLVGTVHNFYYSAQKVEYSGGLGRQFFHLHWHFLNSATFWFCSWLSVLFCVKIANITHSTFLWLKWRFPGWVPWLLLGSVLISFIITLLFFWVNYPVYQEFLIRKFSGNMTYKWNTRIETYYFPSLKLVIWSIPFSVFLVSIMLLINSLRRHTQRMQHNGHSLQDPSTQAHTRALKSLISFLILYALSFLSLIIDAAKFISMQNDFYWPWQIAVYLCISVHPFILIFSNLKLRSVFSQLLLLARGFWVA
Sequence of hT2R10 (Q9NYW0 whole entry): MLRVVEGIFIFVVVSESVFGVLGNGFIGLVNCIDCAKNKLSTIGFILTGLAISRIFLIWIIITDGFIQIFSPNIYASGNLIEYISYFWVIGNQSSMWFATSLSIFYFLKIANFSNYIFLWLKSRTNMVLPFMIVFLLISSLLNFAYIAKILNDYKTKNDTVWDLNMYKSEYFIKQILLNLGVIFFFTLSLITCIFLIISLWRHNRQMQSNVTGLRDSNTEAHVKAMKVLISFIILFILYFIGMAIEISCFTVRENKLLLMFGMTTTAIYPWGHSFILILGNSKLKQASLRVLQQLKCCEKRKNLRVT
Sequence of hT2R5 (Q9NYW4 whole entry): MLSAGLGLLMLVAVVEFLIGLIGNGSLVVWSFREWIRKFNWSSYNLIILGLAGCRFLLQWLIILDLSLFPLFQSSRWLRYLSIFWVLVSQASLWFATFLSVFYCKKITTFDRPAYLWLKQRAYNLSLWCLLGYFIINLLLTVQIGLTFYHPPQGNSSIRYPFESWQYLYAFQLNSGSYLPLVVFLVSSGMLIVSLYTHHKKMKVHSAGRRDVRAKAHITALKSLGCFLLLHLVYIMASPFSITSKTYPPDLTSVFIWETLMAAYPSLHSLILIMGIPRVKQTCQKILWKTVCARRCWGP
Sequence of hT2R61 (P59537 whole entry): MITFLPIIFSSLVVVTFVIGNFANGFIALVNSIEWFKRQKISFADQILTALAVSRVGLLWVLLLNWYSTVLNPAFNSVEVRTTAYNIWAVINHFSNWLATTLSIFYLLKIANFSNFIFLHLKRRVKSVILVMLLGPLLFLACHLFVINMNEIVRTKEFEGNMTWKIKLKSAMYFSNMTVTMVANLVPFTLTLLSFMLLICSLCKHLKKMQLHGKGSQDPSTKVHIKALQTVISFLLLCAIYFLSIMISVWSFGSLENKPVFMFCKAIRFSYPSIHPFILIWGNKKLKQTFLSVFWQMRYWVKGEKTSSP
Sequence of hT2R7 (Q9NYW3 whole entry): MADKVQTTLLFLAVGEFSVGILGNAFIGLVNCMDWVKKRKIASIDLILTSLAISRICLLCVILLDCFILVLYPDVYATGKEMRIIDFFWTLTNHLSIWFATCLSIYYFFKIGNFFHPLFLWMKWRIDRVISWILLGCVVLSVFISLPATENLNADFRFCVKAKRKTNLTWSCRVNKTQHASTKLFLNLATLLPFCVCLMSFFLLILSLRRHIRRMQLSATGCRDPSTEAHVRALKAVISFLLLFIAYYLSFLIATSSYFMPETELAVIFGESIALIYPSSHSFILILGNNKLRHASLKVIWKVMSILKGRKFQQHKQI

Compound | screening result against bitter receptor 63 [1] | inhibition at 25 µM [3, 19] | inhibition at 25 µM [4, 20] | inhibition at 25 µM [5, 21] | screening result against bitter receptor 44 [6] | inhibition at 25 µM [7, 22] | inhibition at 25 µM [8, 23] | inhibition at 25 µM [9, 24] | inhibition at 25 µM [10, 25] | screening result against bitter receptor 55 [11] | inhibition at 25 µM [13] | inhibition at 25 µM [14, 26] | inhibition at 25 µM [15] | screening result against bitter receptor 67 [16] | screening result against bitter receptor 65 [17] | screening result against bitter receptor 54 [18] | further results
COc1ccccc1CN(Cc1ccc(C(=O)O)cc1)S(=O)(=O)c1ccc(O)cc1 [Example 5-42, 4-((4-hydroxy-N-(2-methoxybenzyl)phenylsulfonamido)methyl)-benzoic acid] | ++ (40% to 60% inhibition = ++) | > 80% | 20 to 40% | 20 to 40% | ++ (40% to 60% inhibition = ++) | 20 to 40% | > 80% | 40 to 60% | 40 to 60% | – | – | – | – | – | – | – | IC50 [2]: 2.56 µM
COc1ccc(CN(Cc2ccccc2)S(=O)(=O)c2ccc(CCC(=O)O)cc2)cc1 [Example 5-59, 3-(4-(N-benzyl-N-(4-methoxybenzyl)sulfamoyl)phenyl)propanoic acid] | + (20% to 40% inhibition = +) | 40 to 60% | – | – | – | 20 to 40% | – | – | – | – | – | – | – | – | – | – | –
COc1ccccc1CN(Cc1ccccc1)S(=O)(=O)c1ccc(C(=O)O)cc1 [Example 5-71, 4-(N-benzyl-N-(2-methoxybenzyl)sulfamoyl)benzoic acid] | ++++ (80% or greater inhibition = ++++) | > 80% | 20 to 40% | 20 to 40% | – | 20 to 40% | > 80% | 40 to 60% | 20 to 40% | ++ (40% to 60% inhibition = ++) | 20 to 40% | 20 to 40% | 40 to 60% | + (20% to 40% inhibition = +) | ++ (40% to 60% inhibition = ++) | +++ (60% to 80% inhibition = +++) | inhibition at 25 µM [12]: 20 to 40%
N#Cc1cccc(CN(Cc2ccccc2)S(=O)(=O)c2ccc(C(=O)O)cc2)c1 [Example 5-75, 4-(N-benzyl-N-(3-cyanobenzyl)sulfamoyl)benzoic acid] | + (20% to 40% inhibition = +) | 20 to 40% | – | – | – | 20 to 40% | – | – | – | – | 20 to 40% | – | 20 to 40% | – | – | – | –
CSc1ccc(CN(Cc2ccccc2)S(=O)(=O)c2ccc(C(=O)O)cc2)cc1 [Example 5-78, 4-(N-benzyl-N-(4-(methylthio)benzyl)sulfamoyl)benzoic acid] | +++ (60% to 80% inhibition = +++) | > 80% | 20 to 40% | 20 to 40% | + (20% to 40% inhibition = +) | 20 to 40% | > 80% | 40 to 60% | 40 to 60% | +++ (60% to 80% inhibition = +++) | 20 to 40% | 20 to 40% | 20 to 40% | + (20% to 40% inhibition = +) | +++ (60% to 80% inhibition = +++) | + (20% to 40% inhibition = +) | –
O=C(O)c1ccc(S(=O)(=O)N(Cc2ccccc2)Cc2cccc(Cl)c2)cc1 [Example 5-84, 4-(N-benzyl-N-(3-chlorobenzyl)sulfamoyl)benzoic acid] | +++ (60% to 80% inhibition = +++) | > 80% | 20 to 40% | 40 to 60% | + (20% to 40% inhibition = +) | 20 to 40% | > 80% | 20 to 40% | 20 to 40% | +++ (60% to 80% inhibition = +++) | 20 to 40% | 20 to 40% | 60 to 80% | + (20% to 40% inhibition = +) | +++ (60% to 80% inhibition = +++) | ++ (40% to 60% inhibition = ++) | –
COc1ccc(CN(C(C)c2ccccc2)S(=O)(=O)c2ccc(C(=O)O)cc2)cc1 (centres unmarked) [Example 5-95, 4-(N-(4-methoxybenzyl)-N-(1-phenylethyl)sulfamoyl)benzoic acid] | ++++ (80% or greater inhibition = ++++) | > 80% | 40 to 60% | 40 to 60% | +++ (60% to 80% inhibition = +++) | 20 to 40% | > 80% | 40 to 60% | 60 to 80% | ++++ (80% or greater inhibition = ++++) | 20 to 40% | 20 to 40% | 20 to 40% | + (20% to 40% inhibition = +) | +++ (60% to 80% inhibition = +++) | – | inhibition at 25 µM [12]: 20 to 40%
COc1ccc(OC)c(/C=C2\SC(=S)N(CCC(=O)O)C2=O)c1 [Example 6-1, (Z)-3-(5-(2,5-dimethoxybenzylidene)-4-oxo-2-thioxothiazolidin-3-yl)propanoic acid] | – | – | – | – | – | – | – | – | – | – | – | – | – | – | – | – | inhibition of bitter receptor 63 [1, 27]: + (20% to 40% inhibition = +); inhibition of bitter receptor 55 [11, 27]: + (20% to 40% inhibition = +); IC50 [2]: 2.75 µM; inhibition at 25 µM ([3]; receptor activated to EC80 with agonist, read-out: inhibition of bitter receptor 61): 40 to 60%; inhibition at 25 µM ([4]; receptor activated to EC80 with agonist, read-out: inhibition of bitter receptor 16): 20 to 40%; inhibition at 25 µM ([5]; receptor activated to EC80 with agonist, read-out: inhibition of bitter receptor 3): 20 to 40%; inhibition of bitter receptor 44 [6, 27]: ++ (40% to 60% inhibition = ++); inhibition at 25 µM ([7]; HEK293, read-out: inhibition of bitter receptor 75, compound at 25 μM, receptor activated to EC80 with agonist): 20 to 40%; inhibition at 25 µM ([14]; HEK293, read-out: inhibition of bitter receptor 10, compound at 25 μM, receptor activated to EC80 with agonist): > 80%; inhibition at 25 µM ([8]; receptor activated to EC80 with agonist, read-out: inhibition of bitter receptor 14): > 80%; inhibition at 25 µM ([9]; receptor activated to EC80 with agonist, read-out: inhibition of bitter receptor 71): 20 to 40%; inhibition at 25 µM ([10]; receptor activated to EC80 with agonist, read-out: inhibition of bitter receptor 64): 60 to 80%; inhibition of bitter receptor 65 [17, 27]: + (20% to 40% inhibition = +)
